Assay results published in ChEMBL document CHEMBL4765375, “Synthesis, antiproliferative activity and SAR analysis of (-)-cleistenolide and analogues” (Eur J Med Chem, 2020).

Experiments:
MDA-MB-231 [1] = assay: Potency index, ratio of doxorubicin IC50 to compound IC50 for human MDA-MB-231 cells; format: functional
K562 = assay: Antiproliferative activity against human K562 cells assessed as reduction in cell viability measured after 6 days by MTT assay; format: functional, cell-based; details: K562, 144 h
HL-60 = assay: Antiproliferative activity against human HL-60 cells assessed as reduction in cell viability measured after 6 days by MTT assay; format: functional, cell-based; details: HL-60, 144 h
Jurkat = assay: Antiproliferative activity against human Jurkat cells assessed as reduction in cell viability measured after 6 days by MTT assay; format: functional, cell-based; details: 144 h
Raji [2] = assay: Antiproliferative activity against human Raji cells assessed as reduction in cell viability measured after 6 days by MTT assay; format: functional, cell-based; details: 144 h
MCF7 = assay: Antiproliferative activity against human MCF7 cells assessed as reduction in cell viability measured after 6 days by MTT assay; format: functional, cell-based; details: MCF7, 144 h
MDA-MB-231 [3] = assay: Antiproliferative activity against human MDA-MB-231 cells assessed as reduction in cell viability measured after 6 days by MTT assay; format: functional, cell-based; details: MDA-MB-231, 144 h
HeLa = assay: Antiproliferative activity against human HeLa cells assessed as reduction in cell viability measured after 6 days by MTT assay; format: functional, cell-based; details: 144 h
A549 [4] = assay: Antiproliferative activity against human A549 cells assessed as reduction in cell viability measured after 6 days by MTT assay; format: functional, cell-based; details: A549, 144 h
MRC5 = assay: Cytotoxicity against human MRC5 cells assessed as reduction in cell viability measured after 6 days by MTT assay; format: cell-based; details: MRC5, 144 h
A549 [5] = assay: Potency index, ratio of doxorubicin IC50 to compound IC50 for human A549 cells; format: functional
Raji [6] = assay: Potency index, ratio of doxorubicin IC50 to compound IC50 for human Raji cells; format: functional

IC50 (K562) [µM] | IC50 (HL-60) [µM] | IC50 (Jurkat) [µM] | IC50 (Raji [2]) [µM] | IC50 (MCF7) [µM] | IC50 (MDA-MB-231 [3]) [µM] | IC50 (HeLa) [µM] | IC50 (A549 [4]) [µM] | Compound | Ratio IC50 (MDA-MB-231 [1]) | IC50 (MRC5) [µM] | Ratio IC50 (A549 [5]) | Ratio IC50 (Raji [6])
– | – | – | – | – | – | – | – | CC(=O)O[C@@H]1C=CC(=O)O[C@@H]1[C@@H](COC(=O)c1c(Cl)cc(Cl)cc1Cl)OC(C)=O | 5 | – | – | –
1.27 | 2.53 | 5.71 | 0.14 | 1.66 | 1.55 | 2.65 | 5.24 | O=C1C=C[C@@H](OCc2ccccc2)[C@@H]([C@@H](COC(=O)/C=C/c2ccc([N+](=O)[O-])cc2)OCc2ccccc2)O1 | – | > 100 | – | –
3.69 | 32.6 | 24.4 | 1.85 | 2.64 | 1.85 | 11 | 15.7 | CC(=O)O[C@@H]1C=CC(=O)O[C@@H]1[C@@H](COC(=O)c1ccc(Cl)cc1)OC(C)=O | – | > 100 | – | –
2.38 | 3.11 | 0.12 | 5.64 | 5.12 | 28.6 | 0.67 | 0.18 | CO[C@H]1CC(=O)O[C@H]([C@@H](COC(=O)/C=C/c2ccc([N+](=O)[O-])cc2)OC(C)=O)[C@@H]1OC(C)=O | – | > 100 | 27 | –
2.34 | 4.03 | 0.58 | 2.75 | 1.4 | 6.93 | 1.84 | 2.26 | CC(=O)O[C@@H]1C=CC(=O)O[C@@H]1[C@@H](COC(=O)/C=C/c1ccc([N+](=O)[O-])cc1)OC(C)=O | – | > 100 | – | –
7.54 | 29.7 | 24.6 | 10.1 | 3.87 | 7.48 | 2.64 | 12.6 | CC(=O)OC[C@@H](OC(C)=O)[C@H]1OC(=O)C=C[C@H]1OC(C)=O | – | > 100 | – | –
8.1 | 3.48 | 1.08 | 0.6 | 0.21 | 0.16 | 8.22 | 6.24 | O=C1CC2OCC(OCc3ccccc3)C(O1)C2OCc1ccccc1 (stereo unspecified) | – | > 100 | – | –
1.01 | 5.4 | 4.16 | 2.47 | 3.01 | 3.58 | 7.31 | 12.1 | O=C1C=C[C@@H](OCc2ccccc2)[C@@H]([C@@H](COC(=O)/C=C/c2ccc(F)cc2)OCc2ccccc2)O1 | – | > 100 | – | –
3.25 | 8.25 | 47.2 | 1.08 | 2.36 | 52.3 | 15.5 | 21.5 | O=C1C=C[C@@H](OC(=O)c2ccccc2)[C@@H]([C@@H](COC(=O)c2ccccc2)OC(=O)c2ccccc2)O1 | – | > 100 | – | –
0.43 | 1.57 | 10.3 | 0.69 | 1.11 | 3.26 | 1.08 | 4.25 | COc1ccc(/C=C/C(=O)OC[C@@H](OCc2ccccc2)[C@H]2OC(=O)C=C[C@H]2OCc2ccccc2)cc1 | – | > 100 | – | –
4.65 | 6.21 | 21.2 | 2.69 | 30.2 | 1.58 | 7.64 | 18.2 | COc1cccc(C(=O)OC[C@@H](OC(=O)c2cccc(OC)c2)[C@H]2OC(=O)C=C[C@H]2OC(=O)c2cccc(OC)c2)c1 | – | > 100 | – | –
1.42 | 10.2 | 12.3 | 0.01 | 17.6 | 4.79 | 4.8 | 12.9 | O=C1C=C[C@@H](OCc2ccccc2)[C@@H]([C@@H](CO)OCc2ccccc2)O1 | – | > 100 | – | 298
3.46 | 1.89 | 5.32 | 2.31 | 4.26 | 34.4 | 1.68 | 2.12 | CC(=O)O[C@@H]1C=CC(=O)O[C@@H]1[C@@H](COC(=O)/C=C/c1ccc(F)cc1)OC(C)=O | – | > 100 | – | –
6.96 | 10 | 2.59 | 10 | 9.31 | 22.8 | 5.93 | 1.4 | COc1ccc(/C=C/C(=O)OC[C@@H](OC(C)=O)[C@H]2OC(=O)C=C[C@H]2OC(C)=O)cc1 | – | 78 | – | –
1.59 | 0.61 | 4.96 | 1.33 | 2.57 | 4.97 | 9.51 | 13.2 | O=C1C=C[C@@H](OCc2ccccc2)[C@@H]([C@@H](COC(=O)/C=C/c2ccccc2)OCc2ccccc2)O1 | – | > 100 | – | –
0.88 | 9.23 | 14.7 | 1.82 | 18.9 | 6.42 | 5.35 | 15 | CC(=O)OC[C@@H](OCc1ccccc1)[C@H]1OC(=O)C=C[C@H]1OCc1ccccc1 | – | > 100 | – | –
2.92 | 1.64 | 1.65 | 8.12 | 3.34 | 31.5 | 1.17 | 1.15 | O=C1CC2OCC(O)C(O1)C2O (stereo unspecified) | – | > 100 | – | –
7.64 | 1.11 | 7.45 | 18.5 | 5.32 | 4.12 | 4.65 | 8.64 | CC(=O)O[C@@H]1C=CC(=O)O[C@@H]1[C@@H](COC(=O)c1ccc([N+](=O)[O-])cc1)OC(C)=O | – | > 100 | – | –
